According to PubChem BioAssay AID1963981 (Molecular Pharmacology Branch, DTP, NCI, 2024):

System: 354836-022-R-J1-PDC multicell spheroid viability
Assay: Anticancer human tumor 354836-022-R-J1-PDC patient-derived head and neck squamous cell carcinoma cell line growth inhibition [PI3K]
Details: for IC50: curve of first compound; for viability, T/C: stronger effect = lower value; active means viability on the fitted dose curve at most 10% of control; inactive means the rest
In short: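 Viability of mixed-cell spheroids was determined after exposure to pairwise combinations, one partner being inavolisib, alpelisib, duvelisib or copanlisib. Highest tested concentration matched clinical Cmax where known and 10 microM where not, descending in half-log steps.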

[1] = second compound 0.0316 µM, first compound 0.00316 µM
[2] = second compound 0.0316 µM, first compound 0.01 µM
[3] = second compound 0.0316 µM, first compound 0.0316 µM
[4] = second compound 0.0316 µM, first compound 0.1 µM
[5] = second compound 0.0316 µM, first compound 0.316 µM
[6] = second compound 0.0316 µM, first compound 1 µM
[7] = second compound 0.1 µM, first compound 0.00316 µM
[8] = second compound 0.1 µM, first compound 0.01 µM
[9] = second compound 0.1 µM, first compound 0.0316 µM
[10] = second compound 0.1 µM, first compound 0.1 µM
[11] = second compound 0.1 µM, first compound 0.316 µM
[12] = second compound 0.1 µM, first compound 1 µM
[13] = second compound 0.316 µM, first compound 0.00316 µM
[14] = second compound 0.316 µM, first compound 0.01 µM
[15] = second compound 0.316 µM, first compound 0.0316 µM
[16] = second compound 0.316 µM, first compound 0.1 µM
[17] = second compound 0.316 µM, first compound 0.316 µM
[18] = second compound 0.316 µM, first compound 1 µM
[19] = second compound 1 µM, first compound 0.00316 µM
[20] = second compound 1 µM, first compound 0.01 µM
[21] = second compound 1 µM, first compound 0.0316 µM
[22] = second compound 1 µM, first compound 0.1 µM
[23] = second compound 1 µM, first compound 0.316 µM
[24] = second compound 1 µM, first compound 1 µM
[25] = second compound 3.16 µM, first compound 0.00316 µM
[26] = second compound 3.16 µM, first compound 0.01 µM
[27] = second compound 3.16 µM, first compound 0.0316 µM
[28] = second compound 3.16 µM, first compound 0.1 µM
[29] = second compound 3.16 µM, first compound 0.316 µM
[30] = second compound 3.16 µM, first compound 1 µM
[31] = second compound 10 µM, first compound 0.00316 µM
[32] = second compound 10 µM, first compound 0.01 µM
[33] = second compound 10 µM, first compound 0.0316 µM
[34] = second compound 10 µM, first compound 0.1 µM
[35] = second compound 10 µM, first compound 0.316 µM
[36] = second compound 10 µM, first compound 1 µM
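Further: spheroids exposed to agents for seven days before the viability read.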

CCN1CCN(Cc2ccc(Nc3ncc(F)c(-c4cc(F)c5nc(C)n(C(C)C)c5c4)n3)nc2)CC1 + CC(Nc1ncnc2nc[nH]c12)c1cc2cccc(Cl)c2c(=O)n1-c1ccccc1
0.954 µM: IC50 (second compound 1 µM)
0.788 µM: IC50 (second compound 3.16 µM)
> 1 µM: IC50 (second compound 0.1 µM) | IC50 (second compound 0.316 µM)
0.643 µM: IC50 (second compound 10 µM)
0.917 µM: IC50 (second compound 0.0316 µM)
inactive: viability, T/C [1] 109% | viability, T/C [2] 103% | viability, T/C [3] 97.6% | viability, T/C [4] 96.7% | viability, T/C [5] 81.7% | viability, T/C [6] 47.3% | viability, T/C [7] 106% | viability, T/C [8] 109% | viability, T/C [9] 91.7% | viability, T/C [10] 103% | viability, T/C [11] 99.5% | viability, T/C [12] 61.2% | viability, T/C [13] 103% | viability, T/C [14] 102% | viability, T/C [15] 102% | viability, T/C [16] 104% | viability, T/C [17] 89.4% | viability, T/C [18] 58.1% | viability, T/C [19] 119% | viability, T/C [20] 104% | viability, T/C [21] 94.9% | viability, T/C [22] 109% | viability, T/C [23] 91.6% | viability, T/C [24] 47.8% | viability, T/C [25] 97.9% | viability, T/C [26] 110% | viability, T/C [27] 94.2% | viability, T/C [28] 100% | viability, T/C [29] 93.7% | viability, T/C [30] 38.5% | viability, T/C [31] 92.5% | viability, T/C [32] 92.8% | viability, T/C [33] 90.1% | viability, T/C [34] 86.4% | viability, T/C [35] 83.8% | viability, T/C [36] 29.6%

C[C@@H](NC(=O)c1ncnc(N)c1Cl)c1ncc(C(=O)Nc2cc(C(F)(F)F)c(Cl)cn2)s1 + CC(Nc1ncnc2nc[nH]c12)c1cc2cccc(Cl)c2c(=O)n1-c1ccccc1
> 10 µM: IC50 (second compound 0.0316 µM) | IC50 (second compound 0.1 µM) | IC50 (second compound 0.316 µM) | IC50 (second compound 1 µM) | IC50 (second compound 3.16 µM) | IC50 (second compound 10 µM)
inactive: viability, T/C [3] 88.8% | viability, T/C [4] 84.2% | viability, T/C [5] 102% | viability, T/C [6] 85% | viability, T/C (second compound 0.0316 µM, first compound 3.16 µM) 99.7% | viability, T/C (second compound 0.0316 µM, first compound 10 µM) 75.5% | viability, T/C [9] 90.3% | viability, T/C [10] 104% | viability, T/C [11] 108% | viability, T/C [12] 89% | viability, T/C (second compound 0.1 µM, first compound 3.16 µM) 89.6% | viability, T/C (second compound 0.1 µM, first compound 10 µM) 59.4% | viability, T/C [15] 103% | viability, T/C [16] 104% | viability, T/C [17] 92.5% | viability, T/C [18] 98.8% | viability, T/C (second compound 0.316 µM, first compound 3.16 µM) 87.9% | viability, T/C (second compound 0.316 µM, first compound 10 µM) 62.1% | viability, T/C [21] 100% | viability, T/C [22] 94.5% | viability, T/C [23] 97.4% | viability, T/C [24] 96.5% | viability, T/C (second compound 1 µM, first compound 3.16 µM) 102% | viability, T/C (second compound 1 µM, first compound 10 µM) 71% | viability, T/C [27] 90.6% | viability, T/C [28] 89.3% | viability, T/C [29] 105% | viability, T/C [30] 99% | viability, T/C (second compound 3.16 µM, first compound 3.16 µM) 92.8% | viability, T/C (second compound 3.16 µM, first compound 10 µM) 68.9% | viability, T/C [33] 82.7% | viability, T/C [34] 86% | viability, T/C [35] 84.8% | viability, T/C [36] 93.1% | viability, T/C (second compound 10 µM, first compound 3.16 µM) 87.7% | viability, T/C (second compound 10 µM, first compound 10 µM) 70.3%

Cn1ncnc1[C@H]1c2n[nH]c(=O)c3cc(F)cc(c23)N[C@@H]1c1ccc(F)cc1 + CC(Nc1ncnc2nc[nH]c12)c1cc2cccc(Cl)c2c(=O)n1-c1ccccc1
> 0.1 µM: IC50 (second compound 0.0316 µM) | IC50 (second compound 0.1 µM) | IC50 (second compound 0.316 µM) | IC50 (second compound 1 µM) | IC50 (second compound 3.16 µM) | IC50 (second compound 10 µM)
inactive: viability, T/C (second compound 0.0316 µM, first compound 0.000316 µM) 91.2% | viability, T/C (second compound 0.0316 µM, first compound 0.001 µM) 88.5% | viability, T/C [1] 85.4% | viability, T/C [2] 108% | viability, T/C [3] 105% | viability, T/C [4] 106% | viability, T/C (second compound 0.1 µM, first compound 0.000316 µM) 102% | viability, T/C (second compound 0.1 µM, first compound 0.001 µM) 97.2% | viability, T/C [7] 98.2% | viability, T/C [8] 86.4% | viability, T/C [9] 101% | viability, T/C [10] 83.1% | viability, T/C (second compound 0.316 µM, first compound 0.000316 µM) 100% | viability, T/C (second compound 0.316 µM, first compound 0.001 µM) 117% | viability, T/C [13] 98.8% | viability, T/C [14] 104% | viability, T/C [15] 92.7% | viability, T/C [16] 88.6% | viability, T/C (second compound 1 µM, first compound 0.000316 µM) 110% | viability, T/C (second compound 1 µM, first compound 0.001 µM) 96.5% | viability, T/C [19] 110% | viability, T/C [20] 96.2% | viability, T/C [21] 100% | viability, T/C [22] 79.8% | viability, T/C (second compound 3.16 µM, first compound 0.000316 µM) 108% | viability, T/C (second compound 3.16 µM, first compound 0.001 µM) 107% | viability, T/C [25] 92.1% | viability, T/C [26] 96.7% | viability, T/C [27] 99.6% | viability, T/C [28] 73.4% | viability, T/C (second compound 10 µM, first compound 0.000316 µM) 94.7% | viability, T/C (second compound 10 µM, first compound 0.001 µM) 87.1% | viability, T/C [31] 85.8% | viability, T/C [32] 93.3% | viability, T/C [33] 89.3% | viability, T/C [34] 65.2%
